Measurements as given in patent US20240166651A1, “HETEROCYCLIC DERIVATIVES AS JANUS KINASE INHIBITORS” (CHIESI FARMACEUTICI S.P.A., priority 2021, published 2024).

Columns and labels:
[1] = molecular target: JAK1 kinase (Homo sapiens (Human), UniProt P23458); experiment: Biochemical Potency JAK1 (TR-FRET LANCE Ultra kinase assay); conditions: ATP corresponding to Km
Description: The objective of this study was to assess the activity of novel JAK inhibitors measuring the capability of compounds to inhibit JAK1 kinase activity in a biochemical time-resolved fluorescence resonance energy transfer (TR-FRET) LANCE assay. In
LANCE Ultra kinase assay in the presence of JAK1 kinase and ATP (corresponding to Km), the ULight peptide substrate (LANCE Ulight-JAK-1 (Tyr1023) Peptide, Perkin Elmer, TRF0121) was phosphorylated. It was then captured by a Eu-anti-phospho-substrate antibody (LANCE Eu-W1024 Anti-phosphotyrosine (PT66), Perkin Elmer, AD0069), which brought the Eu-chelate donor and ULight acceptor dyes into close proximity. Upon excitation at 320 nm, the Eu-chelate transfers its energy to the ULight dye, resulting in a fluorescent light emission at 665 nm. Inhibitors were tested at 11 consecutive 5-fold dilutions starting from 30 μM (30 μM—3 pM) in duplicate. Calculation of IC50 data, curves and QC analysis were made using Excel tools and GraphPadPrism software. QC criteria parameters: Z′≥0.5, Hill Slope range 0.5 to 5, S:B>2.

[2] = test system: IL-2 induced phosphorylation of STAT5 (JAK1/JAK3 activity) in human PBMCs; experiment: Cell Based assay PBMC (IL-2 stimulated pSTAT5); conditions: 0.5 h, rh IL-2, 30 min incubation, pSTAT5 ELISA, data displayed as pIC50
Protocol: In addition to enzymatic potency, the effects of the inhibitors against JAK1/JAK3 activity in a cellular assay was characterized against IL-2 induced phosphorylation of STATS level in human peripheral blood mononuclear cells (PBMCs).
PBMC have been isolated from human healthy volunteers. Cells were seeded in wells and treated with compounds and rh IL-2. After 30 min incubation cells were lysed and pSTAT5 determined by PathScan phospho-stats (Tyr694) ELISA (Cell signaling). Inhibitors were tested at 11 consecutive 5-fold dilutions starting from 30 μM (30 μM—3 pM) in duplicate. Calculation of IC50 data, curves and QC analysis were made using
Excel tools and GraphPadPrism software. QC criteria parameters: Z′≥0.35, Hill Slope range 0.5 to 5, S:B >2.

JAK1 kinase, sequence (P23458 whole entry): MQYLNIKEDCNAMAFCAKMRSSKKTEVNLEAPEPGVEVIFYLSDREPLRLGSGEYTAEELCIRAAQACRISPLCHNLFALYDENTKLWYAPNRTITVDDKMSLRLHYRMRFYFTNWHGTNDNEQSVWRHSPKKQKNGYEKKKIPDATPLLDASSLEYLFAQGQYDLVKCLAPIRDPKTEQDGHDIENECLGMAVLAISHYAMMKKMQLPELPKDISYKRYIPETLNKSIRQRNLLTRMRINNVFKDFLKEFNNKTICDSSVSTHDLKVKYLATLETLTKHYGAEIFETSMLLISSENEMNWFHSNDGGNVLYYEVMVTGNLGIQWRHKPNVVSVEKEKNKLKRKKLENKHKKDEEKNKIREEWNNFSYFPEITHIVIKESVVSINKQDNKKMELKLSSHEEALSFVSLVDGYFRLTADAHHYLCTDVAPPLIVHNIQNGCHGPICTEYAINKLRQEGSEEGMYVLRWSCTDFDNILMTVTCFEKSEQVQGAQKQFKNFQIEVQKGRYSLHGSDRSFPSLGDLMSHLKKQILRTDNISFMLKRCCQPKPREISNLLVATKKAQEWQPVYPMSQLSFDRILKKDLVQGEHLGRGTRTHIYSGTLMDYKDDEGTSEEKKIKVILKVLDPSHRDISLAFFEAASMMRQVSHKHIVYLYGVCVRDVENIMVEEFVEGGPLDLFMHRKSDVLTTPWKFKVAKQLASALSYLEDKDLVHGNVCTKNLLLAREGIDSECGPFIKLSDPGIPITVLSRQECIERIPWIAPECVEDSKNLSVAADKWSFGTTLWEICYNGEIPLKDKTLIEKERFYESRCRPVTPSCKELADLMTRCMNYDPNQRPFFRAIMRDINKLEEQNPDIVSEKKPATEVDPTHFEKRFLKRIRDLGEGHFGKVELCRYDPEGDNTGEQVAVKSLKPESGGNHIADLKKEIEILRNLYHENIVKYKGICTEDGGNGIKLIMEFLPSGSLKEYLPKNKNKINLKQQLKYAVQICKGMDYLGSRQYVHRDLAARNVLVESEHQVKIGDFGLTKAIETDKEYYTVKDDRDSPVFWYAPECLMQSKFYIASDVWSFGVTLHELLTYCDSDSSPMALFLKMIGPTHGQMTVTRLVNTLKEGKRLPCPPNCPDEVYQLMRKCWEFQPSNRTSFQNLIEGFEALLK

Structure (SMILES)	Biochemical Potency JAK 1 (pIC50) [1]	IC50 [2]
CCOC(=O)c1cnc2ccsc2c1NC1CCN(c2ccc(C#N)c(F)c2)C1 (stereo not drawn) [Example 7, ethyl 7-((1-(4-cyano-3-fluorophenyl)pyrrolidin-3-yl)amino)thieno[3,2-b]pyridine-6-carboxylate]	6	2510 nM
CN(c1ncnc2[nH]ccc12)[C@@H]1CCN(c2ccc(C#N)c(F)c2)C1 [Example 1, (R)-2-fluoro-4-(3-(methyl(7H-pyrrolo[2,3-d]pyrimidin-4-yl)amino)pyrrolidin-1-yl)benzonitrile]	8.6	50.1 nM
N#Cc1ccc(N2CCC(Nc3c(C(N)=O)cnc4ccsc34)C2)cc1F (stereo not drawn) [Example 4, 7-((1-(4-cyano-3-fluorophenyl)pyrrolidin-3-yl)amino)thieno[3,2-b]pyridine-6-carboxamide]	7	3160 nM
N#Cc1ccc(N2CCC(Nc3c(C(=O)O)cnc4ccsc34)C2)cc1F (stereo not drawn) [Example 8, 7-((1-(4-cyano-3-fluorophenyl)pyrrolidin-3-yl)amino)thieno[3,2-b]pyridine-6-carboxylic acid]	5.3	31600 nM
CN(c1ncnc2[nH]ccc12)[C@@H]1CCN(c2ccc(C(=O)Nc3nccs3)cn2)C1 [Example 3, (R)-6-(3-(methyl(7H-pyrrolo[2,3-d]pyrimidin-4-yl)amino)pyrrolidin-1-yl)-N-(thiazol-2-yl)nicotinamide]	7.7	501 nM
COC(=O)C(c1ccc(Cl)cc1F)N1CCC(N(C)c2ncnc3[nH]ccc23)C1 (stereo not drawn) [Example 5, methyl 2-(4-chloro-2-fluorophenyl)-2-(3-(methyl(7H-pyrrolo[2,3-d]pyrimidin-4-yl)amino)pyrrolidin-1-yl)acetate]	7.6	
CN(c1ncnc2[nH]ccc12)C1CCN(c2ccc(C#N)nc2)C1 (stereo not drawn) [Example 2, 5-(3-(methyl(7H-pyrrolo[2,3-d]pyrimidin-4-yl)amino)pyrrolidin-1-yl)picolinonitrile]	7.9	251 nM
CN(c1ncnc2[nH]ccc12)[C@@H]1CCN(c2cnc(C#N)nc2)C1 [Example 10, (R)-5-(3-(methyl(7H-pyrrolo[2,3-d]pyrimidin-4-yl)amino)pyrrolidin-1-yl)pyrimidine-2-carbonitrile]	7.9	200 nM
CN(c1ncnc2[nH]ccc12)[C@@H]1CCN(c2cc(F)ccc2C#N)C1 [Example 9, (R)-4-fluoro-2-(3-(methyl(7H-pyrrolo[2,3-d]pyrimidin-4-yl)amino)pyrrolidin-1-yl)benzonitrile]	7.6	398 nM
CN(c1ncnc2[nH]ccc12)C1CCN(C(C(=O)O)c2ccc(Cl)cc2F)C1 (stereo not drawn) [Example 6, 2-(4-chloro-2-fluorophenyl)-2-(3-(methyl(7H-pyrrolo[2,3-d]pyrimidin-4-yl)amino)pyrrolidin-1-yl)acetic acid]	5.3	
